Data published in the supplement of paper PMC10307832.

Key:
Experiment in all cases: relative viability (nuclei count vs DMSO), 5 days (fraction); higher = more cells survive
[1] = compound: CCOc1cc2ncc(C#N)c(Nc3ccc(OCc4ccccn4)c(Cl)c3)c2cc1NC(=O)/C=C/CN(C)C [Neratinib] + COc1cc2c(Oc3ccc(NC(=O)C4(C(=O)Nc5ccc(F)cc5)CC4)cc3F)ccnc2cc1OCCCN1CCOCC1 [Foretinib] (partner 0.25 µM)
How it was run: (§1)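 A single step with final 0.05% Triton X-100, 1% formaldehyde and 1 ug/ml Hoechst fixed the cells and stained nuclei 5 days after treatment. Lung cancer cell lines in 1536-well plates had been treated by pin tool the day after seeding with one drug alone or a fixed anchor-drug dose plus five library-drug doses (not always all listed) in √10 steps, and nuclei were counted on 4× images. Relative viability is the ratio of nuclei in treated wells to nuclei in vehicle wells, taken as the median of duplicate plates.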

[2] = compound: CCOc1cc2ncc(C#N)c(Nc3ccc(OCc4ccccn4)c(Cl)c3)c2cc1NC(=O)/C=C/CN(C)C [Neratinib] + NC(=O)Nc1cc(-c2cccc(F)c2)sc1C(=O)N[C@H]1CCCNC1 [AZD7762] (partner 0.2 µM)
How it was run: as §1

[3] = compound: CCOc1cc2ncc(C#N)c(Nc3ccc(OCc4ccccn4)c(Cl)c3)c2cc1NC(=O)/C=C/CN(C)C [Neratinib] + O=C(CCCCCCC(=O)Nc1ccccc1)NO [Vorinostat] (partner 1 µM)
How it was run: as §1

[4] = compound: CCOc1cc2ncc(C#N)c(Nc3ccc(OCc4ccccn4)c(Cl)c3)c2cc1NC(=O)/C=C/CN(C)C [Neratinib] + CS(=O)(=O)N1CCN(Cc2cc3nc(-c4cccc5[nH]ncc45)nc(N4CCOCC4)c3s2)CC1 [Pictilisib] (partner 1 µM)
How it was run: as §1

| Cell Line | relative viability ([1]; first compound 0.01 µM) | relative viability ([1]; first compound 0.03162 µM) | relative viability ([1]; first compound 0.1 µM) | relative viability ([1]; first compound 0.3162 µM) | relative viability ([1]; first compound 1 µM) | relative viability ([2]; first compound 0.01 µM) | relative viability ([2]; first compound 0.03162 µM) | relative viability ([2]; first compound 0.3162 µM) | relative viability ([2]; first compound 1 µM) | relative viability ([3]; first compound 0.01 µM) | relative viability ([3]; first compound 0.03162 µM) | relative viability ([3]; first compound 0.3162 µM) | relative viability ([3]; first compound 1 µM) | relative viability ([4]; first compound 0.01 µM) | relative viability ([4]; first compound 0.03162 µM) | relative viability ([4]; first compound 0.3162 µM) | relative viability ([4]; first compound 1 µM) | relative viability ([2]; first compound 0.1 µM) | relative viability ([3]; first compound 0.1 µM) | relative viability ([4]; first compound 0.1 µM) |
| --- | --- | --- | --- | --- | --- | --- | --- | --- | --- | --- | --- | --- | --- | --- | --- | --- | --- | --- | --- | --- |
| NCI-H727 | 0.978 | 0.709 | 0.793 | 0.842 | 0.558 | 0.574 | 0.568 | 0.497 | 0.374 | 1.05 | 1.1 | 1.11 | 0.899 | 0.337 | 0.256 | 0.516 | 0.258 | – | – | – |
| 201T | 1.06 | 1.12 | 0.797 | 0.995 | – | 0.672 | 0.618 | 0.59 | 0.527 | 0.978 | 0.95 | 0.969 | 0.849 | 0.728 | 0.727 | 0.662 | 0.756 | 0.447 | 0.783 | 0.667 |
| RERF-LC-KJ | 0.924 | 0.992 | 0.896 | 0.872 | 0.43 | 1.06 | 1.1 | 0.734 | 0.679 | 0.705 | 0.742 | 0.66 | 0.382 | 0.554 | 0.501 | 0.384 | 0.276 | 0.741 | 0.55 | 0.435 |
| NCI-H596 | 0.89 | 0.986 | – | 0.798 | 0.622 | 1.07 | 1.27 | 1.1 | 0.805 | 0.5 | 0.641 | 0.622 | 0.73 | 0.374 | 0.417 | 0.4 | 0.329 | 0.745 | 0.631 | 0.35 |
| LK-2 | 1.27 | 1.6 | 1.24 | 0.958 | 0.656 | 0.358 | 0.309 | 0.145 | 0.175 | 0.29 | 0.37 | 0.219 | 0.271 | 0.653 | 0.566 | 0.446 | 0.266 | 0.368 | 0.292 | 0.594 |
| NCI-H1944 | 0.878 | 0.929 | – | 0.599 | 0.327 | 0.584 | 0.621 | 0.505 | 0.313 | 0.657 | 0.544 | 0.501 | 0.456 | 0.387 | 0.341 | 0.31 | 0.266 | 0.4 | 0.474 | 0.193 |
| HCC-78 | 0.561 | 0.555 | 0.499 | 0.344 | 0.365 | 0.797 | 0.602 | 0.424 | 0.415 | 0.547 | 0.408 | 0.362 | 0.28 | 0.184 | 0.233 | 0.215 | 0.182 | 0.541 | 0.352 | 0.215 |
| NCI-H3122 | 1.05 | 0.985 | 0.94 | 0.958 | 0.171 | 1.05 | 1 | 1.01 | 0.438 | 1.04 | 1.09 | 0.992 | 0.609 | 0.634 | 0.589 | 0.619 | 0.214 | 0.88 | 1.02 | 0.474 |
| NCI-H1993 | 0.82 | 0.662 | 0.6 | 0.567 | 0.657 | 0.762 | 0.745 | 0.465 | 0.581 | 1.07 | 0.795 | 0.676 | 0.574 | – | 0.772 | 0.796 | – | 0.624 | 0.423 | 0.721 |
| EMC-BAC-2 | 1.19 | 0.99 | 0.669 | – | 0.54 | 1.19 | 1.19 | 1.08 | 0.974 | 0.898 | 0.565 | 0.46 | 0.351 | 0.584 | 0.558 | 0.468 | 0.371 | 1 | 0.447 | 0.443 |
| LCLC-97TM1 | 1.07 | 0.952 | 0.829 | 0.824 | 0.483 | 0.224 | 0.251 | 0.207 | 0.304 | 0.985 | 0.822 | – | 0.48 | 0.212 | 0.164 | 0.143 | 0.138 | 0.218 | 0.762 | 0.199 |
| H3255 | 0.976 | 0.425 | 0.716 | 0.334 | 0.17 | 1.01 | 0.824 | 0.288 | 0.247 | 0.826 | 0.826 | 0.509 | 0.191 | 0.453 | 0.469 | 0.117 | 0.109 | 0.588 | 0.65 | 0.301 |
| LXF-289 | 1 | 1 | 0.961 | 0.995 | 0.709 | 1.09 | 1.12 | 1.21 | – | 0.819 | 0.866 | 0.803 | 0.765 | 0.785 | 0.821 | 0.759 | 0.418 | 1.04 | 0.732 | – |
| NCI-H647 | 1.36 | 1.34 | – | 1.11 | 0.601 | 0.532 | 0.568 | 0.457 | 0.277 | 0.634 | 0.595 | 0.401 | 0.0941 | 0.437 | 0.506 | 0.364 | 0.183 | 0.466 | 0.488 | 0.456 |
| LC-2-ad | 0.898 | 0.989 | 0.777 | 0.532 | 0.393 | 0.832 | 0.894 | 0.551 | 0.327 | 0.662 | 0.739 | 0.664 | 0.709 | 0.525 | 0.485 | 0.249 | 0.162 | – | 0.687 | 0.0712 |
| A-427 | 1.05 | – | 0.972 | 0.935 | 0.255 | 0.811 | 0.725 | 0.729 | 0.338 | 0.958 | – | – | 0.857 | 0.952 | 0.738 | 0.675 | 0.62 | 0.704 | 0.849 | 0.773 |
| NCI-H441 | 1.01 | 1.04 | 1.07 | 0.856 | 0.492 | 1.12 | 1.32 | 0.987 | 0.73 | 0.794 | 0.817 | 0.777 | 0.633 | 0.508 | 0.482 | 0.313 | 0.191 | 0.958 | 0.747 | 0.456 |
